Values after ≈ are worked out from the molar mass of the structure shown.
Columns and labels:
Assay in all cases: Bacterial growth minimal inhibitory concentration (microdilution, CLSI M7-A7)
Format in all cases: cell-based
K. pneumoniae A-651 = conditions: multiply-resistant strain (in particular quinolone-resistant), cation-adjusted Mueller-Hinton Broth; for MIC: Klebsiella pneumoniae, A651
Procedure: (§1) Minimal Inhibitory Concentrations (MICs; mg/L) were determined in cation-adjusted Mueller-Hinton Broth by a microdilution method following the description given in “Methods for Dilution Antimicrobial Susceptibility Tests for Bacteria that Grow Aerobically”, Approved standard, 7th ed., Clinical and Laboratory Standards Institute (CLSI) Document M7-A7, Wayne, Pa., USA (2006).
(§2) All Example compounds were tested against several Gram-positive and Gram-negative bacteria. […] K. pneumoniae A-651 and Acinetobacter baumannii T6474 are multiply-resistant strains (in particular quinolone-resistant), while E. coli ATCC25922 and P. aeruginosa ATCC27853 are quinolone-sensitive strains.

E. coli ATCC25922 = conditions: quinolone-sensitive strain, cation-adjusted Mueller-Hinton Broth; for MIC: Escherichia coli, ATCC25922
Procedure: as §1, §2

[1] = test system: Acinetobacter baumannii T6474; conditions: multiply-resistant strain (in particular quinolone-resistant), cation-adjusted Mueller-Hinton Broth; for MIC: Acinetobacter baumannii, T6474
Procedure: as §1, §2

P. aeruginosa ATCC27853 = conditions: quinolone-sensitive strain, cation-adjusted Mueller-Hinton Broth; for MIC: Pseudomonas aeruginosa, ATCC27853
Procedure: as §1, §2

Row | Compound | MIC (K. pneumoniae A-651) [µg/mL] | MIC (E. coli ATCC25922) [µg/mL] | MIC [1] [µg/mL] | MIC (P. aeruginosa ATCC27853) [µg/mL] | MIC for K. Pneumoniae A-651 (K. pneumoniae A-651) [mg/L] | MIC for E. coli ATCC25922 (E. coli ATCC25922) [mg/L] | MIC for A. Baumannii T6474 [1] [mg/L] | MIC for P. aeruginosa ATCC27853 (P. aeruginosa ATCC27853) [mg/L]
1 | C[C@@](CCn1ncc2c(F)c(C#Cc3ccc(C4(O)COC4)cc3)ccc21)(C(=O)NO)S(C)(=O)=O [Example 30, (R)-4-(4-fluoro-5-((4-(3-hydroxyoxetan-3-yl)phenyl)ethynyl)-1H-indazol-1-yl)-N-hydroxy-2-methyl-2-(methylsulfonyl)butanamide] | 0.5 (≈ 0.997 µM) | 0.25 (≈ 0.498 µM) | 0.125 (≈ 0.249 µM) | 1 (≈ 1.99 µM) |  |  |  | 
2 | C[C@@](CCn1ncc2c(F)c(C#CC#C[C@H]3C[C@@H]3CO)ccc21)(C(=O)NO)S(C)(=O)=O [Example 31, (R)-4-(4-fluoro-5-(((1S,2S)-2-(hydroxymethyl)cyclopropyl)buta-1,3-diyn-1-yl)-1H-indazol-1-yl)-N-hydroxy-2-methyl-2-(methylsulfonyl)butanamide] | ≤ 0.063 | ≤ 0.063 | 1 (≈ 2.23 µM) | 0.5 (≈ 1.12 µM) |  |  |  | 
3 | C[C@@](CCn1ccc2cc(C#Cc3ccc([C@H]4C[C@@H]4CO)cc3)ccc21)(C(=O)NO)S(C)(=O)=O [Example 33, (R)—N-hydroxy-4-(5-((4-((1S,2S)-2-(hydroxymethyl)cyclopropyl)phenyl)ethynyl)-1H-indol-1-yl)-2-methyl-2-(methylsulfonyl)butanamide] | 0.25 (≈ 0.52 µM) | 0.125 (≈ 0.26 µM) | 0.125 (≈ 0.26 µM) | 2 (≈ 4.16 µM) |  |  |  | 
4 | C[C@@](CCn1ncc2cc(C#CC#CC3(CO)CC3)ccc21)(C(=O)NO)S(C)(=O)=O [Example 34, (R)—N-hydroxy-4-(5-((1-(hydroxymethyl)cyclopropyl)buta-1,3-diyn-1-yl)-1H-indazol-1-yl)-2-methyl-2-(methylsulfonyl)butanamide] | 0.5 (≈ 1.16 µM) | 0.25 (≈ 0.582 µM) | 16 (≈ 37.3 µM) | 1 (≈ 2.33 µM) |  |  |  | 
5 | C[C@H](O)c1ccc(C#Cc2ccc3c(ccn3CC[C@](C)(C(=O)NO)S(C)(=O)=O)c2)cc1 [Example 35, (R)—N-hydroxy-4-(5-((4-((S)-1-hydroxyethyl)phenyl)ethynyl)-1H-indol-1-yl)-2-methyl-2-(methylsulfonyl)butanamide] | 0.25 (≈ 0.55 µM) | ≤ 0.063 | 0.25 (≈ 0.55 µM) | 2 (≈ 4.4 µM) |  |  |  | 
6 | C[C@@](CCn1ncc2c(F)c(C#Cc3ccc(CCO)cc3)ccc21)(C(=O)NO)S(C)(=O)=O [Example 36, (R)-4-(4-fluoro-5-((4-(2-hydroxyethyl)phenyl)ethynyl)-1H-indazol-1-yl)-N-hydroxy-2-methyl-2-(methylsulfonyl)butanamide] | 0.125 (≈ 0.264 µM) | ≤ 0.063 | ≤ 0.063 | 1 (≈ 2.11 µM) |  |  |  | 
7 | C[C@@H](O)c1ccc(C#Cc2ccc3c(cnn3CC[C@](C)(C(=O)NO)S(C)(=O)=O)c2F)cc1 [Example 37, (R)-4-(4-fluoro-5-((4-((R)-1-hydroxyethyl)phenyl)ethynyl)-1H-indazol-1-yl)-N-hydroxy-2-methyl-2-(methylsulfonyl)butanamide] | 0.125 (≈ 0.264 µM) | ≤ 0.063 | ≤ 0.063 | 1 (≈ 2.11 µM) |  |  |  | 
8 | C[C@@](CCn1ncc2c(F)c(C#CC#CC3(O)COC3)ccc21)(C(=O)NO)S(C)(=O)=O [Example 38, (R)-4-(4-fluoro-5-((3-hydroxyoxetan-3-yl)buta-1,3-diyn-1-yl)-1H-indazol-1-yl)-N-hydroxy-2-methyl-2-(methylsulfonyl)butanamide] | 1 (≈ 2.22 µM) | 0.5 (≈ 1.11 µM) | 32 (≈ 71.2 µM) | 1 (≈ 2.22 µM) |  |  |  | 
9 | C[C@@](CCn1ncc2c(F)c(C#CC#CC3(CO)CC3)ccc21)(C(=O)NO)S(C)(=O)=O [Example 39, (R)-4-(4-fluoro-5-((1-(hydroxymethyl)cyclopropyl)buta-1,3-diyn-1-yl)-1H-indazol-1-yl)-N-hydroxy-2-methyl-2-(methylsulfonyl)butanamide] | 0.5 (≈ 1.12 µM) | 0.25 (≈ 0.559 µM) | 32 (≈ 71.5 µM) | 2 (≈ 4.47 µM) |  |  |  | 
10 | C[C@@](CCn1ncc2c(F)c(C#Cc3ccc(C4(CO)COC4)cc3)ccc21)(C(=O)NO)S(C)(=O)=O [Example 40, (R)-4-(4-fluoro-5-((4-(3-(hydroxymethyl)oxetan-3-yl)phenyl)ethynyl)-1H-indazol-1-yl)-N-hydroxy-2-methyl-2-(methylsulfonyl)butanamide] | 1 (≈ 1.94 µM) | 0.5 (≈ 0.97 µM) | 0.5 (≈ 0.97 µM) | 4 (≈ 7.76 µM) |  |  |  | 
11 | C[C@@](CCn1ncc2cc(C#CC#C[C@@H]3C[C@H]3CO)ccc21)(C(=O)NO)S(C)(=O)=O [Example 42, (R)—N-hydroxy-4-(5-(((1R,2R)-2-(hydroxymethyl)cyclopropyl)buta-1,3-diyn-1-yl)-1H-indazol-1-yl)-2-methyl-2-(methylsulfonyl)butanamide] | 0.25 (≈ 0.582 µM) | ≤ 0.063 | 32 (≈ 74.5 µM) | 0.5 (≈ 1.16 µM) |  |  |  | 
12 | C[C@@](CCn1ccc2cc(C#Cc3ccc(CO)cc3F)ccc21)(C(=O)NO)S(C)(=O)=O [Example 43, (R)-4-(5-((2-fluoro-4-(hydroxymethyl)phenyl)ethynyl)-1H-indol-1-yl)-N-hydroxy-2-methyl-2-(methylsulfonyl)butanamide] | 0.5 (≈ 1.09 µM) | 0.5 (≈ 1.09 µM) | 16 (≈ 34.9 µM) | 1 (≈ 2.18 µM) |  |  |  | 
13 | C[C@@](CCn1ccc2cc(C#Cc3ccc([C@@H](O)CO)cc3)ccc21)(C(=O)NO)S(C)(=O)=O [Example 44, (R)-4-(5-((4-((R)-1,2-dihydroxyethyl)phenyl)ethynyl)-1H-indol-1-yl)-N-hydroxy-2-methyl-2-(methylsulfonyl)butanamide] | 0.25 (≈ 0.531 µM) | 0.125 (≈ 0.266 µM) | 8 (≈ 17 µM) | 2 (≈ 4.25 µM) |  |  |  | 
14 | C[C@@](CCn1ccc2cc(C#Cc3ccc(CCO)cc3)ccc21)(C(=O)NO)S(C)(=O)=O [Example 45, (R)—N-hydroxy-4-(5-((4-(2-hydroxyethyl)phenyl)ethynyl)-1H-indol-1-yl)-2-methyl-2-(methylsulfonyl)butanamide] | 0.25 (≈ 0.55 µM) | ≤ 0.063 | 8 (≈ 17.6 µM) | 1 (≈ 2.2 µM) |  |  |  | 
15 | C[C@@](CCn1ncc2cc(C#CC#C[C@H]3C[C@@H]3CO)c(F)cc21)(C(=O)NO)S(C)(=O)=O [Example 46, (R)-4-(6-fluoro-5-(((1S,2S)-2-(hydroxymethyl)cyclopropyl)buta-1,3-diyn-1-yl)-1H-indazol-1-yl)-N-hydroxy-2-methyl-2-(methylsulfonyl)butanamide] | 0.125 (≈ 0.279 µM) | ≤ 0.063 | > 32 | 1 (≈ 2.23 µM) |  |  |  | 
16 | C[C@@](CCn1ncc2cc(C#Cc3ccc(CCO)cc3)c(F)cc21)(C(=O)NO)S(C)(=O)=O [Example 47, (R)-4-(6-fluoro-5-((4-(2-hydroxyethyl)phenyl)ethynyl)-1H-indazol-1-yl)-N-hydroxy-2-methyl-2-(methylsulfonyl)butanamide] | 0.25 (≈ 0.528 µM) | ≤ 0.063 | 0.25 (≈ 0.528 µM) | 2 (≈ 4.22 µM) |  |  |  | 
17 | C[C@@](CCn1ncc2cc(C#CC#CC[C@@H](O)CO)ccc21)(C(=O)NO)S(C)(=O)=O [Example 50, (R)-4-(5-((R)-6,7-dihydroxyhepta-1,3-diyn-1-yl)-1H-indazol-1-yl)-N-hydroxy-2-methyl-2-(methylsulfonyl)butanamide] | 4 (≈ 9.23 µM) | 4 (≈ 9.23 µM) | 32 (≈ 73.8 µM) | 2 (≈ 4.61 µM) |  |  |  | 
18 | C[C@@](CCn1ncc2cc(C#CC#C[C@@H]3C[C@@H](O)[C@@H](O)C3)ccc21)(C(=O)NO)S(C)(=O)=O [Example 51, (R)-4-(5-(((1s,3R,4S)-3,4-dihydroxycyclopentyl)buta-1,3-diyn-1-yl)-1H-indazol-1-yl)-N-hydroxy-2-methyl-2-(methylsulfonyl)butanamide] |  |  |  |  | 1 | 0.5 | 4 | 1
19 | C[C@@](CCn1ncc2cc(C#Cc3ccc(C4(CO)CC4)cc3)ccc21)(C(=O)NO)S(C)(=O)=O [Example 52, (R)—N-hydroxy-4-(5-((4-(1-(hydroxymethyl)cyclopropyl)phenyl)ethynyl)-1H-indazol-1-yl)-2-methyl-2-(methylsulfonyl)butanamide] | 0.25 (≈ 0.519 µM) | ≤ 0.063 | 0.125 (≈ 0.26 µM) | 2 (≈ 4.15 µM) |  |  |  | 
20 | C[C@@](CCn1ncc2cc(C#CC#CC34CC(CO)(C3)C4)ccc21)(C(=O)NO)S(C)(=O)=O [Example 53, (R)—N-hydroxy-4-(5-((3-(hydroxymethyl)bicyclo[1.1.1]pentan-1-yl)buta-1,3-diyn-1-yl)-1H-indazol-1-yl)-2-methyl-2-(methylsulfonyl)butanamide] | 0.25 (≈ 0.549 µM) | 0.125 (≈ 0.274 µM) | 1 (≈ 2.2 µM) | 1 (≈ 2.2 µM) |  |  |  | 
21 | C[C@@](CCn1ncc2cc(C#CC#CC3(CN)CC3)ccc21)(C(=O)NO)S(C)(=O)=O [Example 54, (R)-4-(5-((1-(aminomethyl)cyclopropyl)buta-1,3-diyn-1-yl)-1H-indazol-1-yl)-N-hydroxy-2-methyl-2-(methylsulfonyl)butanamide] | 16 (≈ 37.3 µM) | 8 (≈ 18.7 µM) | > 32 | 8 (≈ 18.7 µM) |  |  |  | 
22 | (R)—N-hydroxy-4-(5-((3-hydroxythietan-3-yl)buta-1,3-diyn-1-yl)-1H-indol-1-yl)-2-methyl-2-(methylsulfonyl)butanamide [Example 32] |  |  |  |  | 0.25 | 0.125 | 16 | 2
